Reference: patent US20250042875A1, “PESTICIDALLY ACTIVE PYRIDAZINONE COMPOUNDS” (SYNGENTA CROP PROTECTION AG, priority 2021, published 2025)

Key:
Format in all cases: in vivo
Plutella xylostella = assay: Activity against Plutella xylostella (diamond back moth), artificial diet, eggs; settings: 192 h, application rate 200 ppm, 8 days after infestation, read-out: control in at least one of the two categories (mortality or growth inhibition)
Summary of the method: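 Artificial diet was treated with aqueous dilutions of 10′000 ppm DMSO stocks, dried, then infested with Plutella eggs. Mortality and growth inhibition versus untreated samples were scored 8 days after infestation.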

Diabrotica balteata = assay: Activity against Diabrotica balteata (corn root worm), maize sprouts, L2 larvae; settings: 96 h, application rate 200 ppm, 4 days after infestation, read-out: control in at least one of the two categories (mortality or growth inhibition)
Procedure: Example B2: Activity Against Diabrotica Balteata (Corn Root Worm)
Maize sprouts placed onto an agar layer in 24-well microtiter plates were treated with aqueous test solutions prepared from 10′000 ppm DMSO stock solutions by spraying. After drying, the plates were infested with L2 larvae (6 to 10 per well). The samples were assessed for mortality and growth inhibition in comparison to untreated samples 4 days after infestation.

Spodoptera littoralis = assay: Activity against Spodoptera littoralis (Egyptian cotton leaf worm), cotton leaf discs, L1 larvae; settings: foliar, 72 h, application rate 200 ppm, 3 days after infestation, read-out: control in at least one of the three categories (mortality, anti-feedant effect, or growth inhibition)
Summary of the method: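 Cotton leaf discs on agar sprayed with aqueous test solutions made from 10′000 ppm DMSO stocks, then infested with five L1 larvae once dry. Mortality, anti-feeding and growth inhibition scored versus untreated samples 3 days after infestation; control counted when any category exceeds untreated.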

Euschistus heros = assay: Activity against Euschistus heros (neotropical brown stink bug), soybean leaves, N2 nymphs; settings: 120 h, application rate 200 ppm, 5 days after infestation, read-out: effect in at least one of the two categories (mortality or growth inhibition)
Procedure: Example B3: Activity Against Euschistus heros (Neotropical Brown Stink Bug)
Soybean leaves on agar in 24-well microtiter plates were sprayed with aqueous test solutions prepared from 10′000 ppm DMSO stock solutions. After drying the leaves were infested with N2 nymphs. The samples were assessed for mortality and growth inhibition in comparison to untreated samples 5 days after infestation.

Chilo suppressalis = assay: Activity against Chilo suppressalis (striped rice stemborer), artificial diet, L2 larvae; settings: 144 h, application rate 200 ppm, 6 days after infestation, read-out: control in at least one of the three categories (mortality, anti-feedant effect, or growth inhibition)
Summary of the method: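 Artificial diet was treated with aqueous test solutions made from 10′000 ppm DMSO stocks, dried, then infested with 6-8 L2 larvae per well. Mortality, anti-feeding effect and growth inhibition were scored versus untreated samples 6 days after infestation; control means any category exceeds untreated.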

Myzus persicae [1] = assay: Activity against Myzus persicae (green peach aphid), intrinsic activity; settings: 120 h, test rate 12 ppm, 5 days after infestation
Summary of the method: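 Compounds diluted from 10′000 ppm DMSO stocks were mixed with sucrose solution under a stretched Parafilm membrane. Aphid-infested pea seedlings were set on the membrane and the plate was inverted so the aphids fed through it. Mortality was scored 5 days after infestation.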

Myzus persicae [2] = assay: Activity against Myzus persicae (green peach aphid), systemic activity; settings: 144 h, test rate 24 ppm, 6 days after placing seedlings into test solutions
Procedure: Example B9: Activity Against Myzus persicae (Green Peach Aphid). Systemic Activity
Roots of pea seedlings infested with an aphid population of mixed ages were placed directly into aqueous test solutions prepared from 10′000 DMSO stock solutions. The samples were assessed for mortality 6 days after placing seedlings into test solutions.

Myzus persicae [3] = assay: Activity against Myzus persicae (green peach aphid), feeding/contact activity; settings: 144 h, application rate 200 ppm, 6 days after infestation
Procedure: Example B5: Activity Against Myzus persicae (Green Peach Aphid). Feeding/Contact Activity
Sunflower leaf discs were placed onto agar in a 24-well microtiter plate and sprayed with aqueous test solutions prepared from 10′000 ppm DMSO stock solutions. After drying, the leaf discs were infested with an aphid population of mixed ages. The samples were assessed for mortality 6 days after infestation.

[4] = system: Frankliniella occidentalis; assay: Activity against Frankliniella occidentalis (western flower thrips), feeding/contact activity; settings: 168 h, application rate 200 ppm, 7 days after infestation
Procedure: Example B4: Activity Against Frankliniella occidentalis (Western Flower Thrips). Feeding/Contact Activity
Sunflower leaf discs were placed on agar in 24-well microtiter plates and sprayed with aqueous test solutions prepared from […] stock solutions. After drying the leaf discs were infested with a Frankliniella population of mixed ages. The samples were assessed for mortality 7 days after infestation.

Tetranychus urticae = assay: Activity against Tetranychus urticae (two-spotted spider mite), feeding/contact activity; settings: 192 h
Procedure: Example B10: Activity Against Tetranychus urticae (Two-Spotted Spider Mite). Feeding/Contact Activity
Bean leaf discs on agar in 24-well microtiter plates were sprayed with aqueous test solutions prepared from 10′000 ppm DMSO stock solutions. After drying the leaf discs were infested with a mite population of mixed ages. The samples were assessed for mortality on mixed population (mobile stages) 8 days after infestation.

C[C@@H](c1ncnn1-c1ccc(=O)n(C)n1)N(C)C(=O)c1cc(C(F)(F)F)cc(C(F)(F)F)c1 [P5, N-methyl-N-[(1S)-1-[2-(1-methyl-6-oxo-pyridazin-3-yl)-1,2,4-triazol-3-yl]ethyl]-3,5-bis(trifluoromethyl)benzamide]
≥ 80%: percent control (mortality or growth inhibition) at 200 ppm (Plutella xylostella) | percent control (mortality or growth inhibition) at 200 ppm (Diabrotica balteata) | percent control (mortality, anti-feedant effect or growth inhibition) at 200 ppm (Spodoptera littoralis) | percent effect (mortality or growth inhibition) at 200 ppm (Euschistus heros) | percent control (mortality, anti-feedant effect or growth inhibition) at 200 ppm (Chilo suppressalis) | mortality at 12 ppm (Myzus persicae [1]) | mortality at 24 ppm (Myzus persicae [2]) | mortality at 200 ppm (Myzus persicae [3])

CC(c1nccnc1-c1ccc(=O)n(C)n1)N(C)C(=O)c1cc(C(F)(F)F)cc(C(F)(F)F)c1 (stereo not shown) [P6, N-methyl-N-[1-[3-(1-methyl-6-oxo-pyridazin-3-yl)pyrazin-2-yl]ethyl]-3,5-bis(trifluoromethyl)benzamide]
≥ 80%: percent control (mortality or growth inhibition) at 200 ppm (Plutella xylostella) | percent control (mortality or growth inhibition) at 200 ppm (Diabrotica balteata) | percent control (mortality, anti-feedant effect or growth inhibition) at 200 ppm (Spodoptera littoralis) | percent control (mortality, anti-feedant effect or growth inhibition) at 200 ppm (Chilo suppressalis) | mortality at 12 ppm (Myzus persicae [1]) | mortality at 24 ppm (Myzus persicae [2]) | mortality at 200 ppm (Myzus persicae [3])

C[C@@H](c1ncnn1-c1ccc(=O)n(C)n1)N(C)C(=O)c1cc(Cl)cc(S(=O)(=O)C(F)(F)F)c1 [P18, 3-chloro-N-methyl-N-[(1S)-1-[2-(1-methyl-6-oxo-pyridazin-3-yl)-1,2,4-triazol-3-yl]ethyl]-5-(trifluoromethylsulfonyl) benzamide]
≥ 80%: percent control (mortality or growth inhibition) at 200 ppm (Plutella xylostella) | percent control (mortality or growth inhibition) at 200 ppm (Diabrotica balteata) | percent control (mortality, anti-feedant effect or growth inhibition) at 200 ppm (Spodoptera littoralis) | percent effect (mortality or growth inhibition) at 200 ppm (Euschistus heros) | percent control (mortality, anti-feedant effect or growth inhibition) at 200 ppm (Chilo suppressalis) | mortality at 12 ppm (Myzus persicae [1]) | mortality at 24 ppm (Myzus persicae [2]) | mortality at 200 ppm (Myzus persicae [3])

C[C@H](NC(=O)c1cc(Cl)cc(C(F)(F)F)c1)c1ncnn1C1=NN(C)C(=O)CC1 [P19, 3-chloro-N-[(1S)-1-[2-(1-methyl-6-oxo-4,5-dihydropyridazin-3-yl)-1,2,4-triazol-3-yl]ethyl]-5-(trifluoromethyl)benzamide]
≥ 80%: percent control (mortality or growth inhibition) at 200 ppm (Plutella xylostella) | percent control (mortality or growth inhibition) at 200 ppm (Diabrotica balteata) | percent control (mortality, anti-feedant effect or growth inhibition) at 200 ppm (Spodoptera littoralis) | percent effect (mortality or growth inhibition) at 200 ppm (Euschistus heros) | mortality at 200 ppm [4] | percent control (mortality, anti-feedant effect or growth inhibition) at 200 ppm (Chilo suppressalis) | mortality at 12 ppm (Myzus persicae [1]) | mortality at 200 ppm (Tetranychus urticae)
